The numbers were not newly measured in patent US20150037408A1, “Delayed Release Pharmaceutical Compositions of Salsalate” (priority 2012, published 2015), which cites them from elsewhere.

The conditions of series [1]: 3 grams daily (two 750-mg tablets twice daily) for 15 days.
For series [2] the following is noted: patients with osteoarthrosis of the hip or knee.

`O=C(Oc1ccccc1C(=O)O)c1ccccc1O` [Salsalate, 2-hydroxybenzoic acid 2-carboxyphenyl ester]: the “efficacy and safety in arthritic disease” value in series [1] is “effective and safe in ameliorating the symptoms of arthritic disease”. Moreover, in series [2], the “clinical improvement versus aspirin” value is recorded as “comparable clinical improvement to that with aspirin”; the “side-effects and faecal occult blood loss versus aspirin” value is “significantly superior to aspirin”.
